The text below walks through data of BindingDB's records for doi:10.1016/j.chembiol.2014.09.011 (Astrazeneca R&D, 2014).

Holding throughout (experiment): AMPD Enzymatic Activity Assay
Conditions in all cases: pH 7.4

Experiment [1] has as its target T1, AMP deaminase 2 (Homo sapiens, UniProt Q01433).
T1 sequence (Q01433 whole entry): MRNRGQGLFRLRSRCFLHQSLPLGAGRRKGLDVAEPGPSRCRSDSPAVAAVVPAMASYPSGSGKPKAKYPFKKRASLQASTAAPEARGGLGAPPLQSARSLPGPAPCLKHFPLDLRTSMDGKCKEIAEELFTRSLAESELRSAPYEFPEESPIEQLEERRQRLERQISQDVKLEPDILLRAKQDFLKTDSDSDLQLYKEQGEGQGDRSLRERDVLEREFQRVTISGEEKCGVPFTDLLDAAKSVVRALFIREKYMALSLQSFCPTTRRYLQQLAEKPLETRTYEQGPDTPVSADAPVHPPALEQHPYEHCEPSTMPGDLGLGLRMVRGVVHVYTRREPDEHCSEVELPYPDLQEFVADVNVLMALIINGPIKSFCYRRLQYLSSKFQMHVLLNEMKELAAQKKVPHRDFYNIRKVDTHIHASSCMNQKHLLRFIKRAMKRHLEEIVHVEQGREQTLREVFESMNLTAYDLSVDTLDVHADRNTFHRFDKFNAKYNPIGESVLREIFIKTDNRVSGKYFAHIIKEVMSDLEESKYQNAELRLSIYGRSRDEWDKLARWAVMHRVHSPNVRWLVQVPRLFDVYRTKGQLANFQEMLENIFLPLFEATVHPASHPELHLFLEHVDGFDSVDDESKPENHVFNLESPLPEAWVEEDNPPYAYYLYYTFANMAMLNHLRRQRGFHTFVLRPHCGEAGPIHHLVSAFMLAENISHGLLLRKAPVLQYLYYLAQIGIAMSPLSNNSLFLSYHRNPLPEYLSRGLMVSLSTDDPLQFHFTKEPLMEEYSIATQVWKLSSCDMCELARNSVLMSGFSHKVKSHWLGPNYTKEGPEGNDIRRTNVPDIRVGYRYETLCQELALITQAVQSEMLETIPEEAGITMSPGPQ
How it is done: (§1) AMPD1 was added to buffer A (50 mM HEPES, 150 mM KCl, 5 mM MgCl2, and 0.5 mMglutathione [pH 7.4]) to a concentration of 10 nM. A substrate mix consistingof 2mMNADPH, 6mMa-ketoglutarate, 8mMAMP, and 15 U GDH was prepared in buffer A. Substrate mix ([…]) was added to the plate, followed by centrifugation and incubation for 1 hr. Detection was by absorbance at 340 nm following the conversion of NADPH to NADP+. Recombinant AMPD enzyme activity assays were performed in a 384-well format using the same conditions as described above, except the assay volume was […] and the AMP concentration for the AMPD2 assay was 8 mM. Different AMPD enzyme concentrations were used to have linear reactions: hAMPD1 (4 nM), hAMPD2 (38 nM), hAMPD3 (1 nM), rAMPD1 (116 nM), rAMPD2 (53 nM), rAMPD3 (31 nM), and mAMPD1 (816 nM).

Experiment [2] concerns the target T2, AMP deaminase 2 (Rattus norvegicus, UniProt Q02356).
T2 sequence (Q02356 whole entry): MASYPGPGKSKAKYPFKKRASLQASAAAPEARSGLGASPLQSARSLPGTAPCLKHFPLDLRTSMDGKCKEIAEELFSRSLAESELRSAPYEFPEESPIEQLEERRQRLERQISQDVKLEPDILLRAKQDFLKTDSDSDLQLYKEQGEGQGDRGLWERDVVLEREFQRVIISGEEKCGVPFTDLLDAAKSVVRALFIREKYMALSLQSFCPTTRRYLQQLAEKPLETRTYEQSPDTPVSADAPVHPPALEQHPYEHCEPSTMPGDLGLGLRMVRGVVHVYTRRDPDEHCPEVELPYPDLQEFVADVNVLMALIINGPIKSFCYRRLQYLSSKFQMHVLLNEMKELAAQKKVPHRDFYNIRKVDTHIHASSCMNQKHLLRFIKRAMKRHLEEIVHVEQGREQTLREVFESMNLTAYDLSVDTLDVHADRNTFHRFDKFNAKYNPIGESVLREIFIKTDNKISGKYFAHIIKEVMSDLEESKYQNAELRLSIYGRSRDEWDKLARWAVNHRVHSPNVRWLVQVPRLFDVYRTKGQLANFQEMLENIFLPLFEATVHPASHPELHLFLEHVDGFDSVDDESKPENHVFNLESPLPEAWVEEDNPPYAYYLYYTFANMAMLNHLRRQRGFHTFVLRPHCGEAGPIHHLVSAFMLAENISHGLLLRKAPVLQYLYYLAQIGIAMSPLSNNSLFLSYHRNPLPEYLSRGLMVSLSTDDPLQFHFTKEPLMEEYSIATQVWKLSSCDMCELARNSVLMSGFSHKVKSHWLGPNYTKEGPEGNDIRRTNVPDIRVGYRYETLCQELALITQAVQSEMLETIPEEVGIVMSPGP
The method, then: as §1

Experiment [3] has as its target T3, AMP deaminase 3 (Homo sapiens, UniProt Q01432).
T3 sequence (Q01432 whole entry): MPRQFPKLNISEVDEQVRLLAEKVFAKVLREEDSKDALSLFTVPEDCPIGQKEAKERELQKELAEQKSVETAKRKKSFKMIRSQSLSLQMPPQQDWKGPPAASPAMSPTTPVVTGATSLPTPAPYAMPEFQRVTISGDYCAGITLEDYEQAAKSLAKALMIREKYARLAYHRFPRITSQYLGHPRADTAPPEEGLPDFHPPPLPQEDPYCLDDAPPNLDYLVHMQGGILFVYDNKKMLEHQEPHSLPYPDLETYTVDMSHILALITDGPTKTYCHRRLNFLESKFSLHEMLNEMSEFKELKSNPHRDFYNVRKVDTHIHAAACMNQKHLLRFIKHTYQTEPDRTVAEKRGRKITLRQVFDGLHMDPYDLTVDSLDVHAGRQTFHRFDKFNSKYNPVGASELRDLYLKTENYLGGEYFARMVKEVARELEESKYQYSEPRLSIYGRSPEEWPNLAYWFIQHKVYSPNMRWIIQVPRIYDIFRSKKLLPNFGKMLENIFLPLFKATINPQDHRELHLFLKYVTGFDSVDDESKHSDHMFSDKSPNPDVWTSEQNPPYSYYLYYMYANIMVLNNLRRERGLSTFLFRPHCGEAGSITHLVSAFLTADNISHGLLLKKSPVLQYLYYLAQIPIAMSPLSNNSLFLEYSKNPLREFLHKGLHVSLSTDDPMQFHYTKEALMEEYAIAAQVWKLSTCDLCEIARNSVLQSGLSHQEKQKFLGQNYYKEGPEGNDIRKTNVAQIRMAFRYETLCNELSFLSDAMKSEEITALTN
How it is done:
as §1

For the compound `C[C@H](NCc1ccc(-c2ccc(C(=O)O)cn2)cc1)c1cccc2ccncc12` [6-[4-({[(1S)-1-(isoquinolin-8-yl)ethyl]amino}methyl)phenyl]pyridine-3-carboxylic acid (Compound 3)], the results for the IC50 in experiment [1], in experiment [2] and in experiment [3] were 0.016 µM, 0.57 µM and 0.075 µM, respectively.

With `C[C@@H](NCc1ccc(-c2ccc(C(=O)O)cn2)cc1)c1cccc2ccncc12` [6-[4-({[(1R)-1-(isoquinolin-8-yl)ethyl]amino}methyl)phenyl]pyridine-3-carboxylic acid (Compound 2)], the IC50 in experiment [1] was found to be 32 µM; in experiment [2], 32 µM; in experiment [3], 7.3 µM.
